Results on 87 molecules are retold here after PubChem BioAssay AID2305 (GlaxoSmithKline (GSK), 2010).

This experiment deals with P. falciparum 3D7 growth, pLDH absorbance. Description: P. falciparum 3D7 growth inhibition, dose response, strain 3D7 (AID 2305).

`O=C1OC(c2cc3ccccc3n2S(=O)(=O)c2ccccc2)(c2cc3ccccc3n2S(=O)(=O)c2ccccc2)c2ccccc21`: the IC50 came out at 850 nM. This counts as sub-micromolar. `CCCCCCc1cc(Oc2c(I)cc(C[C@H](N)C(=O)O)cc2I)ccc1O` displayed an IC50 of 910 nM.

In turn, `CC(C)COc1ccc(Cl)cc1Cc1ccc(-c2nc3ccc(F)cc3[nH]2)o1` registered an IC50 of 850 nM. To `O=C(Cc1cnc[nH]1)Nc1cccc(-c2cccc(-c3nc4ccccc4[nH]3)c2)c1` belongs 1020 nM; to `Cc1cccc2[nH]c(-c3cccc(-c4cccc(NC(=O)Nc5ccccc5)c4)c3)nc12`, 140 nM; to `Cc1cccc2[nH]c(-c3ccc(-c4cccc(NC(=O)c5ccncc5)c4)cc3)nc12`, 840 nM. The molecule `COc1ccc2ncc(OC)c(CCN3CC[C@@H](NCc4ccc5c(n4)NC(=O)CS5)[C@H](O)C3)c2n1` returned an IC50 of 830 nM. The figure for `COc1ccc(CC(=O)NC2CCN(c3ccnc4cc(Cl)ccc34)C2)cc1` (configuration not stated) is 240 nM.

As to `CN(c1cc(NC(=O)c2cccs2)ccn1)C1CCN(Cc2cccc(C#N)c2)CC1`, the IC50 was found to be 1260 nM. Against the preceding molecule, the IC50 is about 5.2-fold higher. To `Nc1nc(N)c2cc(C#Cc3ccc(-c4ccccc4)cc3)ccc2n1` belongs 810 nM; to `C=CCN1C(=O)CN(S(=O)(=O)c2ccc(-n3nc(C)cc3C)cc2)C1=S`, 940 nM; to `CC(C)/C(=C(/F)CN1C(=O)C(NC(=O)c2cc3ccccc3[nH]2)C(=O)N(c2ccccc2)c2ccccc21)c1ccccc1` (configuration not stated), 700 nM.

Turning to `O=C(NCc1cccnc1)C(c1cc2ccccc2o1)N1CCN(C(c2ccccc2)c2ccccc2)CC1` (configuration not stated), the IC50 was determined as 710 nM. The IC50 values of the last two molecules are within 1.5-fold of each other. The figure for `CCCN(c1ccc(O)c(CN2CCCCC2)c1)c1ccc([N+](=O)[O-])cn1` is 800 nM.

`Cc1cc(N(C)CCCN(C)C)nc(Nc2ccc(Br)cc2)n1` had an IC50 of 640 nM. `Cc1cc(N[C@@H](Cc2ccccc2)C(=O)NC2CCCC2)nc(NCCc2cccs2)n1` gave an IC50 of 1400 nM. In turn, `CCCCOc1c(CCNCCCCNCCc2cc(OC)c3ccccc3c2OCCCC)cc(OC)c2ccccc12` showed an IC50 of 920 nM.

As to `Cc1cc(Nc2cccc(C(F)(F)F)c2)nc(N)n1`, the IC50 was found to be 790 nM. This IC50 and that of the molecule before are within 1.5-fold of each other.

As to `COc1ccc2nccc(NCC3(O)CCC(NCc4ccc5c(n4)NC(=O)CS5)CC3)c2n1` (configuration not stated), the IC50 worked out at 690 nM. This IC50 and that of the molecule before are within 1.5-fold of each other. The figure for `c1ccc(-c2[nH]c3ccccc3c2CN2CCC(N3CCCCC3)CC2)nc1` is 1210 nM; for `O=C(NCCCCN1CCC(c2ccc(-c3ccco3)cc2)CC1)c1ccc(NC(=O)c2ccc(Cl)cc2)cc1` it is 540 nM. To `CC(C)(C)c1ccc(-c2nnc(N)nc2N)cc1` belongs 860 nM; to `Cc1cccc(Nc2nccc(NCC(O)c3cccc(C(F)(F)F)c3)n2)c1` (configuration not stated), 510 nM. To `CC1(C)S(=O)(=O)CC(O)CS1(=O)=O` belongs 470 nM; to `CC(C)NCc1ccc(-c2cccc(-c3nc4ccc(C(F)(F)F)cc4[nH]3)c2)cc1`, 260 nM. `COCCNC(=O)C(CNC(=O)c1ccc2c(c1)OCO2)NC(=O)c1ccc(-c2ccccc2)cc1` (configuration not stated) gave an IC50 of 970 nM. Compared with the last molecule, the IC50 is about 3.7-fold higher. The figure for `CNC(=O)C1Cc2c([nH]c3c(C)cccc23)C2(N1)C(=O)Nc1ccc(OC(F)(F)F)cc12` (configuration not stated) is 460 nM; for `COc1ccc(CCn2c(=N)c(C(=O)NCc3ccccc3)cc3c(=O)n4ccccc4nc32)cc1` it is 750 nM. With `Nc1c(Cl)cc(C(O)CNCCCCCCOCCc2ccc(CO)s2)cc1Cl` (configuration not stated), the IC50 is 1050 nM. To `CN1CCN(c2cccc(-c3nnc(-c4ccc(OCC(=O)NCc5cccc(C(F)(F)F)c5)c([N+](=O)[O-])c4)o3)c2)CC1` belongs 960 nM. To `Cc1cccc(-c2nc(Nc3ccncc3)c3ccc([N+](=O)[O-])cc3n2)n1` belongs 830 nM. Molecule `CC(Sc1n[nH]c(-c2cccs2)n1)C(=O)c1c[nH]c2ccccc12` (configuration not stated) gave an IC50 of 1800 nM. `O=C(NCCN1CCCCC1)c1ccc(CNC(=O)c2ccc(O)c(-c3cccc(C(F)(F)F)c3)c2)cc1` displayed an IC50 of 890 nM.

The molecule `CN(C)Cc1c(O)ccc2[nH]c(-c3ccc(OC(F)(F)F)cc3)nc12` came in with an IC50 of 730 nM.

As for `O=C(/C=C/c1ccc(Cl)c(Cl)c1)NCCCCN1CCCN(C(=O)Nc2ccc(F)c(Cl)c2)CC1`, the IC50 was 1510 nM. The figure for `CCc1c[nH]c2c(N3CCCS3(=O)=O)cc(C(=O)N[C@@H](Cc3ccccc3)[C@H](O)CNC3CCCCC3)cc12` is 770 nM; for `O=C(NC1CCN(c2ncc(C(F)(F)F)cc2Cl)CC1)c1cccs1` it is 900 nM. To `CN(C)CCCOc1ccc(-c2nc(-c3ccc4c(c3)CCC4=NO)c(-c3ccncc3)[nH]2)cc1` belongs 830 nM. To `COc1cc(Cc2cnc(N)nc2N)cc(OCCCCC2SC(=O)NC2=O)c1Br` (configuration not stated) belongs 120 nM. Consider `CCOc1cccc2nc(NCCCNCc3ccc(Cl)c(Cl)c3)cc(NCCCNCc3ccc(Cl)c(Cl)c3)c12`, for which the IC50 was found to be 570 nM. To `Cc1sc(N2CCN(C)CC2)nc1C(=O)Nc1ccc(F)cc1C(F)(F)F` belongs 1070 nM; to `CC(O)C1CCCCN1C(=O)c1ccc(-c2ccc(-c3nc4ccc(F)cc4[nH]3)cc2)cc1` (configuration not stated), 440 nM; to `COc1ccc(NC(=O)[C@H](Cc2ccccc2)Nc2cc(C)nc(NCCc3cccs3)n2)cc1`, 750 nM. The figure for `CC1=C(C(=O)Nc2ccc(Cl)cc2)C(c2ccncc2)n2nc(C(F)(F)F)nc2N1` (configuration not stated) is 930 nM; for `COC(=O)CCn1c(C2CCN(CC3CCC(NC(=O)/C=C/c4ccc(Cl)c(Cl)c4)CC3)CC2)nc2ccccc21` (configuration not stated) it is 950 nM. The figure for `Nc1c(Cl)cc(C(O)CNCCCCCCOCCc2ccc(O)cc2)cc1Cl` (configuration not stated) is 730 nM.

Regarding `Cc1csc2nc(-c3ccccn3)nc(Nc3ccc4ncsc4c3)c12`, the IC50 came to 1110 nM. To `CC(=O)Nc1ncc(C(=O)Nc2ccc(-c3cccc(-c4nc5ccc(F)cc5[nH]4)c3)cc2)s1` belongs 350 nM; to `CC(C)CCNC(=O)C1Cc2c([nH]c3cc(Cl)ccc23)C2(CCN(CCc3ccccc3)CC2)N1` (configuration not stated), 690 nM; to `CC[C@H]1CN2CC[C@H]1C[C@H]2[C@H](O)c1cc(/C=C/c2ccc(F)cc2)nc2ccc(OC)cc12`, 30 nM. The molecule `N#Cc1cccc(NC(=O)Nc2cccc(-c3cccc(-c4nc5ccc(C(F)(F)F)cc5[nH]4)c3)c2)c1` had an IC50 of 220 nM. The figure for `O=c1cc(N2CCNCC2)c(Cl)nn1Cc1ccc(NS(=O)(=O)c2ccc(Oc3ccccc3)cc2)cc1` is 570 nM; for `CCOc1cc(Br)c(C(C)NC(=O)c2ccccc2)cc1OCC` (configuration not stated) it is 860 nM. Regarding `Cc1cc(OCCCN2CCC(NS(=O)(=O)c3ccc(Cl)c(Cl)c3)C2)c2ccccc2n1` (configuration not stated), the IC50 was 1050 nM. The figure for `CC(C)(C)c1ccc2nc(-c3ccc(C(=O)NC4CCN(Cc5ccccc5)CC4)s3)[nH]c2c1` is 360 nM; for `COc1cc(C(=O)NCc2nn(CCN3CCC(N4CCCC4)CC3)cc2-c2ccc(Cl)c(Cl)c2)cc(OC)c1OC` it is 770 nM; for `COc1ccc(-c2cccc(NC(=O)c3ccc(Cl)cc3)c2)cc1CN1CCCC1` it is 780 nM.

As for `COc1ccc(S(=O)(=O)NCCCC2CCN(CCCCCNC(=O)C=Cc3ccc(Cl)c(Cl)c3)CC2)cc1`, the IC50 came out at 1040 nM. This IC50 and that of the molecule before are within 1.5-fold of each other. To `C=Cc1c(C2CCN(CCCCNC(=O)c3ccc(-c4ccc(C#N)cc4)cc3)CC2)ccc2c1CCCC2` belongs 880 nM; to `Cc1cnc(C(=O)Nc2ccc3c(c2)CCCN(Cc2c[nH]c4cnccc24)C3)cn1`, 1230 nM.

Turning to `O=C(/C=C/c1cc(C(F)(F)F)ccc1F)NCCCCCN1CCC(c2c[nH]c3ccccc23)CC1`, the IC50 amounted to 1130 nM. The molecule `Cc1cc(NCCc2ccccc2)nc(/N=C(\N)Nc2ccc(Cl)cc2)n1` registered an IC50 of 230 nM. In turn, `CCNC(=O)N1CCc2ccc(Oc3nc(NCc4ccccc4OC)ncc3C)cc2CC1` registered an IC50 of 1070 nM. To `COc1ccc2nccc([C@H](O)CN3CCC(NCc4nc5c(F)cccc5[nH]4)CC3)c2c1` belongs 710 nM; to `O=C(Nc1ccc(-c2nc3ccccc3[nH]2)cc1)c1cnc(Cl)c(Cl)c1`, 730 nM; to `CN(c1ccccc1C(=O)Nc1ccccc1Oc1ccccc1)S(=O)(=O)c1ccccc1`, 1150 nM. The figure for `Cc1ccc2nc(/N=C(\N)NC(=O)NC3CCCCC3)nc(C)c2c1` is 620 nM; for `Cc1cc(N2CCCC2)nc(Nc2ccc(NC(=O)c3cccc(F)c3)cc2)n1` it is 180 nM. To `CCCCCCc1cc(OC)c(OC)cc1C(C)Nc1ccnc2cc(Cl)ccc12` (configuration not stated) belongs 490 nM; to `CN(C)C(CNC(=O)c1cc(-c2ccncc2)c(-c2ccc(Cl)c(O)c2)o1)c1ccccc1` (configuration not stated), 840 nM. As for `O=C(/C=C/c1ccc(Cl)c(Cl)c1)NCCCCCN1CCCC(c2c[nH]c3ccccc23)C1` (configuration not stated), the IC50 came to 810 nM. This IC50 and that of the molecule before are within 1.5-fold of each other. The figure for `COc1ccc2c(NN=Cc3cccc(F)c3)cc(C)nc2c1` is 780 nM; for `Nc1nccc2ccc(-c3ccncc3)cc12` it is 250 nM; for `N#Cc1ccc(CN2CCC(Oc3ccc(NC(=O)c4cccs4)cc3Cl)CC2)cc1` it is 580 nM. The figure for `Cc1ccc(S(=O)Cc2ccc(Cl)cc2)cc1` (configuration not stated) is 200 nM; for `Cc1ccccc1CNCC(O)c1cccc(C(F)(F)F)c1` (configuration not stated) it is 880 nM; for `O=C(CSc1nccn1Cc1ccco1)Nc1cc(C(F)(F)F)ccc1Cl` it is 820 nM.

`CC(C)CNCc1ccc(-c2cccc(CN(C(=O)CCC3CCCC3)C3CCN(Cc4ccccc4)CC3)c2)cc1` returned an IC50 of 800 nM. The figure for `c1cc(CNCC2CCCO2)cc(-c2csc(-c3nc4ccccc4[nH]3)c2)c1` (configuration not stated) is 1040 nM; for `COc1ccc(CNC2CCN(C)CC2)cc1-c1ccc(S(=O)(=O)NCCc2ccccn2)c(C)c1` it is 1150 nM; for `Cc1cc(OCCCN2CCC(NS(=O)(=O)c3cccc(Br)c3)CC2)c2ccccc2n1` it is 1110 nM. To `CCCCc1ccc(Cc2cnc3nc(N)nc(N)c3c2C)cc1` belongs 230 nM; to `CCN(CC)CCN(Cc1ccc(-c2ccc(C(F)(F)F)cc2)cc1)C(=O)Cn1cc(CCCCc2cccc(F)c2F)c(=O)c2ccccc21`, 880 nM; to `CCOc1ccc(N(CC)S(=O)(=O)c2cc(Br)cc3c2N(C(=O)C2CC2)CC3)cc1`, 130 nM. Turning to `COc1ccc2ccccc2c1CON1C(N)=NC(N)=NC1(C)C`, the IC50 was found to be 30 nM.

In the case of `Cc1ccc(C(O)CNc2ccnc(Nc3cccc(-c4csc(C)n4)c3)n2)cc1` (configuration not stated), the IC50 was 830 nM.

Regarding `Cc1c(C(=O)N(C)C)sc2c1c(=O)n(Cc1ccccc1)c(=O)n2CC(=O)Nc1ccccc1F`, the IC50 amounted to 660 nM.

Usually IC50 stands for the concentration that gives 50% inhibition. Higher therefore signals lower potency.
